Data taken from patent publication US12128062B2, “Methods for targeting pain directed at metabolic pathways” (UNIVERSITY OF MARYLAND, BALTIMORE, priority 2018, dated 2024).

Legend:
[1] = Hyperalgesic priming model (plantar incision then intraplantar PGE2), tactile thresholds by von Frey filaments; type: in vivo, mouse
Excerpt: The hyperalgesic priming model was utilized in the experiments because it is well-characterized and used to study the neuroplasticity underlying persistent pain sensitization and the transition of acute pain to chronic pain [13-17]. As shown at the top FIG. 2, the model is comprised of three phases. 1) The acute phase, also called the induction phase, causes transient tactile hypersensitivity in response to various pro-nociceptive compounds and resolves within a week. The hindpaw plantar incision model was used for the acute phase, which comprises incision of the skin, the underlying fascia, and the plantar flexor digitorum brevis muscle as the initial injury. This model was selected since it lacks injury to major peripheral nerves and typically resolves within a week. 2) The primed phase follows the acute phase. The animals are not hypersensitive and this phase can last for at least 3 weeks.
In this experiment, mice received plantar incision and their tactile thresholds were determined using von Frey filaments. Mice were placed in small cages with a mesh floor individually. Calibrated monofilaments of differing forces are applied perpendicularly to the hind paw. Withdraws, licking or flinching of the paw in response to the filament is considered a positive response. The results are provided in FIG. 2A where “Threshold (grams)” on the y-axis represents the amount of force required for the mice to withdraw the hindpaw before (baseline, BL) and after the incision. Reduced withdrawal threshold indicates increased pain.
In this experiment, the same mice used in the acute phase were allowed to recover and on Day 10 received intraplantar PGE2. The results are provided in FIG. 2B where “Threshold (grams)” on the y-axis represents the amount of force required for the mice to withdraw their hindpaw which is an indication of tactile hypersensitivity and pain. […] 1, 2, 3 and 4 days post-PGE2 injection, *** P<0.001. […] PGE2 injection caused profound allodynia in mice that had plantar incision.
In this experiment, mice were injected with 1 μg of teRNA or teRNAmm intrathecally (IT). The next day L4-6 DRGs were dissected and acutely dissociated for extracellular flux analysis. One day post teRNA and teRNA mm injection L4-6 DRGs were dissected and proteins were extracted for western blot analysis. In an independent experiment, mice received plantar incision and were allowed to recover. On day 10 baseline measurements were performed, which was followed by intraplantar injection of PGE2. Allodynia testing was preformed form on days 14, 15, 21 and 24. Intrathecal teRNA or teRNAmm (1 μg) were injected on day 14 following the allodynia testing. […]

[2] = Bortezomib-induced CIPN (neuropathic pain) mouse model, tactile thresholds / allodynia; type: in vivo
Method: teRNA was administered to mice which have developed neuropathic pain due to bortezomib treatment. In this experiment, mice were treated with intraperitoneal 0.2 mg/kg of bortezomib (Millipore Sigma, Cat #5.04314.0001) for 5 consecutive days for a total dose of 1 mg/kg. The vehicle group received intraperitoneal saline for 5 consecutive days. The mice that receive bortezomib develop profound allodynia. The efficacy of teRNA for treating and preventing the development of bortezomib-induced neuropathic pain was explored.
Treatment with bortezomib (bort) from day 0-4 (black arrow) led to the development of severe neuropathic pain. Baseline thresholds were measured on day 0 and allodynia was tested on days 14, 15, 17 and 21.
In a second experiment, mice were treated with either saline or bortezomib on days 0-4 (intraperitoneal 0.2 mg/kg of bortezomib for 5 consecutive days for a total dose of 1 mg/kg). On day 7 mice that received bortezomib developed profound neuropathic pain.
To determine if teRNA can prevent the development of chemotherapy-induced neuropathic pain, mice were co-treated with IT teRNA (days 0, 2 and 4) and intraperitoneal (IP) bortezomib (days 0-4) (intraperitoneal 0.2 mg/kg of bortezomib for 5 consecutive days for a total dose of 1 mg/kg).

[3] = system: L4-6 DRG cultures (sensory neurons); assay: Extracellular flux analysis (Seahorse XFp): glutamine oxidation-dependent oxygen consumption rate of dissociated L4-6 DRG cultures from IT-treated mice; type: cell-based, mouse; conditions: glutamine 2 mM; for increase in oxygen consumption rate (OCR) in response to glutamine addition: DRG cultures from mice given 1 μg IT one day earlier, baseline OCR subtracted; for time over which the glutamine-induced OCR increase lasts: DRG cultures from mice given 1 μg IT
Method: In this experiment, mice were injected with 1 μg of teRNA or teRNAmm intrathecally (IT). The next day L4-6 DRGs were dissected and acutely dissociated for extracellular flux analysis. One day post teRNA and teRNA mm injection L4-6 DRGs were dissected and proteins were extracted for western blot analysis. In an independent experiment, mice received plantar incision and were allowed to recover. On day 10 baseline measurements were performed, which was followed by intraplantar injection of PGE2. Allodynia testing was preformed form on days 14, 15, 21 and 24. Intrathecal teRNA or teRNAmm (1 μg) were injected on day 14 following the allodynia testing.
In this experiment, L4-6 DRGs were dissected form naïve, teRNAmm and teRNA treated mice. Lumbar 4-6 DRGs were placed in Hank's Buffered Salt Solution (HBSS, Thermo Fisher, Cat #14170112) on ice. The ganglia were dissociated enzymatically with collagenase A (1 mg/ml, 25 min, Millipore Sigma, Cat #10103578001) and collagenase D (1 mg/ml, Millipore Sigma, Cat #11088858001) with papain (30 U/ml, Millipore Sigma, Cat #10108014001) for 20 min at 37° C. To eliminate debris and large diameter sensory neurons, 70 μm (Thermo Fisher, Cat #087712) cell strainers were used. The dissociated cells were resuspended in DMEM/F12 (Thermo Fisher, Cat #10565042) containing 1× pen-strep (Thermo Fisher, Cat #15070063) and 10% fetal bovine serum (Millipore Sigma, Cat #F2442). The cells were plated in Seahorse XFp Cell Culture Miniplate (Agilent, Cat #103025-100). These cultures were incubated overnight at 37° C. in a humidified 95% air/5% CO2 incubator. The metabolic changes were characterized by analyzing the glycolysis and oxidative phosphorylation rates of sensory neurons using extracellular flux analyzer, Seahorse XFp (Agilent). Dissociated L4-6 primary afferents were incubated in DMEM (Millipore Sigma, Cat #D5030) without glutamine, pyruvate or glucose, Baseline oxygen consumption rate (OCR) measurements were followed by the addition of glutamine (2 mM). The baseline OCR values were subtracted from each of the other values to determine glutamine oxidation-dependent OCR.

ASCT2 = assay: Western blot of ASCT2 protein in L4-6 DRGs after intrathecal injection; type: in vivo, mouse; conditions: IT 1 μg, DRGs dissected 24 hrs post injection; versus teRNAmm control
Method: Western blot (WB) analyses were performed to examine changes in metabolic genes that are known to regulate pyruvate and glutamine oxidation. In these experiments, lumbar 4-6 dorsal root ganglia (L4-6 DRGs) which innervate the hindpaw were dissected on Day 1, 9 and 14 post-plantar incisions (as described above). Protein was extracted from the L4-6 DRGs in lysis buffer (50 mM Tris HCl, 1% Triton X-100, 150 mM NaCl, and 1 mM EDTA at pH 7.4) containing protease and phosphatase inhibitor mixtures with an ultrasonicator on ice, and cleared of cellular debris by centrifugation at 14,000 relative centrifugal force for 15 min at 4° C. Fifteen micrograms of protein per well were loaded and separated by standard 7.5% or 10% SDS-PAGE. Proteins were transferred to Immobilon-P membranes (Millipore Sigma, Cat #IPVH00010) and then blocked with 5% dry milk for 3 h at room temperature. The blots were incubated with primary antibody overnight at 4° C. and detected the following day with donkey anti-rabbit or goat anti-mouse antibody conjugated to horseradish peroxidase (1:10,000, Jackson Immunoresearch, Cat #711-036-152, Cat #115-036-062). Signal was detected by enhanced chemiluminescence on films. For assessment of phospho-proteins, membranes were stripped and reprobed for total-protein of interest for normalization. Densitometric analyses were done using UN-SCAN-IT 7.1 software (Silk Scientific Corp.). […]

[4] = single IT 1 μg, 14 days post plantar incision (4 days post PGE2)
[5] = IT 1 μg on days 7, 9 and 11, bortezomib IP 0.2 mg/kg days 0-4
[6] = single IT 1 μg on day 14, bortezomib IP 0.2 mg/kg days 0-4

| Substance | effect on tactile hypersensitivity / tactile thresholds, incision group [1, 4] | effect on existing bortezomib-induced neuropathic pain, repeated treatment [2, 5] | effect on bortezomib-induced neuropathic pain / tactile thresholds, single treatment [2, 6] | increase in oxygen consumption rate (OCR) in response to glutamine addition [3] | time over which the glutamine-induced OCR increase lasts [3] | effect on tactile thresholds of the control group (no incision) ([1]; single IT 1 μg on day 14) | duration of alleviation of tactile hypersensitivity, incision group [1, 4] | ASCT2 protein in L4-6 DRGs (ASCT2) | duration of pain relief, repeated treatment [2, 5] | prevention of development of bortezomib-induced neuropathic pain, co-treatment ([2]; IT on days 0, 2 and 4 with IP bortezomib 0.2 mg/kg days 0-4) | time post the initiation of bortezomib treatment up to which existing neuropathic pain was alleviated ([2]; IT on days 7, 9 and 11, bortezomib days 0-4) | duration of alleviation of bortezomib-induced neuropathic pain, single treatment [2, 6] |
| --- | --- | --- | --- | --- | --- | --- | --- | --- | --- | --- | --- | --- |
| 5′-CAUACUACGCCGUAGC-3′ (2'-O-methyl modifications, further chemistry not given here) [teRNAmm, reference compound] | did not display any change in their tactile thresholds | did not impact the bortezomib-induced neuropathic pain | did not impact the tactile thresholds | 10% | ≤ 30 min |  |  |  |  |  |  |  |
| 5′-CAUAGAUCCGGGAUGC-3′ (2'-O-methyl modifications, further chemistry not given here) [teRNA] | alleviated tactile hypersensitivity | prolonged pain relief | reversed the bortezomib-induced neuropathic pain | around 20% | at least 30 mins | did not affect the tactile thresholds | at least 7 days | robust increase | at least 2 weeks | prevented the development of bortezomib-induced neuropathic pain | at least 21 days | several days |
